Measurements: publication PMC6342301, “Potent, multi-target serine protease inhibition achieved by a simplified β-sheet motif” (PLoS ONE, 2019)
Where two headings read alike, the source gives them in different places. Bridge positions count the residues as written; N and C are the ends. Peptide text beside a SMILES is read from it.

Tests used:
[1] = target: T1, KLK7 (Homo sapiens, UniProt P49862); assay: Competitive inhibition assay against KLK7 (KHLY-pNA substrate); format: biochemical; conditions: for Ki: KLK7, substrate KHLY-pNA, Morrison equation
T1 construct: made in house; host or cells: Pichia pastoris strain X-33
Source text: KLK7 was produced as a zymogen in the yeast Pichia pastoris strain X-33 previously developed and optimised by Dr Maria Brattsand [29]. Expressed proteins were purified using cation exchange chromatography on UnoSphere S (Biorad) and activated by treatment with enterokinase (10 units per milligram purified zymogen; Thermo Fisher Scientific) before a final polishing step to remove enterokinase, again using cation exchange chromatography. The active site concentration of purified KLK7 was determined using the serpin α1- proteinase inhibitor (A1PI) which binds to KLK7 with 1:1 stoichiometry. Briefly, a fixed amount of KLK7 was pre-incubated with a range of inhibitor concentrations at room temperature for 20 min before adding a constant concentration of substrate KHLY-pNA. The residual KLK7 activities were measured as the increase of absorbance at 405 nm for 10 min (ΔOD405/min) and plotted against respective inhibitor concentrations. The active site concentration was determined by linear regression to find the concentration of inhibitor required for complete KLK7 inhibition (ΔOD405/min drops to zero), which is equal to the concentration of KLK7 active site.
Inhibitory property of SFTI inhibitors was assessed by determining the inhibition constant (Ki) in competitive inhibition assays against a range of proteases as described before. Serial dilutions of the inhibitor were pre-incubated with a fix concentration of protease in assay buffer (0.1 M Tris pH 8.0, 0.1 M NaCl and 0.05% Triton X-100) at room temperature for 10 min. Assays were initiated by addition of respective peptide-pNA substrates. Absorbance changes at 405 nm were monitored using a micro plate spectrophotometer (Bio-rad Benchmark Plus) over 5 min. Inhibition constants were calculated in GraphPad Prism 5.01 (La Jolla California, USA) by non-linear regression using the Morrison equation for tight binding inhibitors.

[2] = target: KLK14; conditions: substrate Ac-YANR-pNA; cited from earlier work
[3] = target: KLK5; conditions: substrate Ac-YRSR-pNA; cited from earlier work
[4] = target: T1, KLK7; design: method as in PMID 26393374; conditions: substrate KHLY-pNA; cited from earlier work
[5] = target: Trypsin; conditions: substrate Ac-YASR-pNA; cited from earlier work
[6] = target: T1, KLK7; conditions: cited from earlier work

T1 sequence (P49862 30-253): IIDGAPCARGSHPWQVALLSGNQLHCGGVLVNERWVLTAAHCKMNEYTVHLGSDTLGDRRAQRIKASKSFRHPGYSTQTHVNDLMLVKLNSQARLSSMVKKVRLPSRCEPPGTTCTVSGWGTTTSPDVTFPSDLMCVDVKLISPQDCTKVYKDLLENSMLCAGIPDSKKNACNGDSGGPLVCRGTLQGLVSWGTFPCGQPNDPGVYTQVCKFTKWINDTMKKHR

CC[C@H](C)[C@@H]1NC(=O)[C@@H]2CCCN2C(=O)[C@@H]2CCCN2C(=O)[C@H]([C@@H](C)CC)NC(=O)[C@H](CO)NC(=O)[C@H](CCCCN)NC(=O)[C@H]([C@@H](C)O)NC(=O)[C@@H]2CSSC[C@H](NC1=O)C(=O)N[C@@H](Cc1ccccc1)C(=O)N1CCC[C@H]1C(=O)N[C@@H](CC(=O)O)C(=O)NCC(=O)N[C@@H](CCCNC(=N)N)C(=O)N2 [SFTI-1, Sunflower trypsin inhibitor-1, reference compound]
Ki [1]: 4800 ± 200 nM

CC[C@H](C)[C@@H]1NC(=O)[C@@H]2CCCN2C(=O)[C@@H]2CCCN2C(=O)[C@H]([C@@H](C)CC)NC(=O)[C@H](CO)NC(=O)[C@H](CCCNC(=N)N)NC(=O)[C@H]([C@@H](C)O)NC(=O)[C@@H]2CSSC[C@H](NC1=O)C(=O)N[C@@H](Cc1ccccc1)C(=O)N1CCC[C@H]1C(=O)N[C@@H](CC(=O)O)C(=O)NCC(=O)N[C@@H](CCCNC(=N)N)C(=O)N2 [SFTI-RCTR] (cyclo(CFPDGRCTRSIPPI); disulfide 1-7)
Ki [1]: 220 ± 6 nM

SFTI-TCTR: SFTI variant GTCTRSIPPICNPN with four mutations R2T (P4), K5R (P1), F12N, D14N in the cyclic backbone (head-to-tail cyclic backbone)
Ki [2]: 0.4 ± 0.02 nM
Ki [3]: 2 ± 0.1 nM
Ki [4]: 17 ± 0.4 nM
fold increased inhibitory potency against KLK7 compared to SFTI-1 ([1]; ratio of Ki values, relative to SFTI-1): 286 fold
fold increase in KLK7 inhibitory potency compared to SFTI-RCTR ([1]; ratio of Ki values, relative to SFTI-RCTR): 13 fold
Ki [5]: 0.7 ± 0.07 nM

B1: recombinant LEKTI fragment comprising domains 8–11: recombinant LEKTI fragment comprising domains 8–11 (protein)
chain: EAAKEICSEFRDQVRNGTLICTREHNPVRGPDGKMHGNKCAMCASVFKLEEEEKKNDKEEKGKVEAEKVKREAVQELCSEYRHYVRNGRLPCTRENDPIEGLDGKIHGNTCSMCEAFFQQEAKEKERAEPRAKVKREAEKETCDEFRRLLQNGKLFCTRENDPVRGPDGKTHGNKCAMCKAVFQKENEERKRKEEEDQRNAAGHGSSGGGGGNTQDECAEYREQMKNGRLSCTRESDPVRDADGKSYNNQCTMCKAKLEREAERKNEY
modifications: intradomain disulfides; check residue is from a known polymorphic site (R711Q), not from the pape
Ki [6]: 34.8 nM
